Source: patent publication US12187816B2, “Macrocyclic compounds and methods of use thereof” (Genentech, Inc., priority 2020, dated 2025)
Starred links: 1 amine or outer side, 2 acyl side, 3 side chain; linkers in the order of their positions; H or OH if unused. Non-standard residues stand in square brackets, D forms with d. Residues, ends and D or L forms follow the SMILES beside them. *: point of attachment. JQ1acid = Cc1sc2c(c1C)C(c1ccc(Cl)cc1)=N[C@@H](CC(=O)*)c1nnc(C)n1-2; X1 = CC(C)(C)[C@@H](C(=O)[*:2])n1cc(COCCN[*:1])nn1; X13 = Cc1ncsc1-c1ccc(C[C@@H](N[*:1])C(=O)[*:2])cc1; dBip = N[C@H](Cc1ccc(-c2ccccc2)cc1)C(=O)O; dLys(N3) = [N-]=[N+]=NCCCC[C@@H](N)C(=O)O; Hyp = O=C(O)[C@@H]1C[C@@H](O)CN1; Tle = CC(C)(C)[C@H](N)C(=O)O; dDap = NC[C@@H](N)C(=O)O; AEA = NCCOCC(=O)O

Biological target: T1, BRD4 (Homo sapiens, UniProt O60885)
T1 construct: Mean 488 intensity of BRD4 quantitated in nuclear region; endogenous in cells; host or cells: EoL-1 eosinophilic leukemia cells
Experiment: BRD4 degradation assay in EOL1 cells (immunofluorescence imaging)
Assay type: cell-based
Conditions: EoL-1 eosinophilic leukemia cells, 4 hours treatment, nuclear BRD4 immunofluorescence
Method in brief: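 EoL-1 cells treated 4 h at 37 °C with 20-point 1/3 serial dilutions (0.2% DMSO) in RPMI/10% FBS, then fixed and immunostained for BRD4. Mean nuclear BRD4 intensity measured by high-content imaging, with Hoechst nuclear masking. DMSO and no-primary-antibody controls define 0 and 100%; DC50 and maximal effect from dose-response fit.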

DC50 [nM] | Compound
< 50 | Cc1sc2c(c1C)C(c1ccc(Cl)cc1)=N[C@@H](CC(=O)NC[C@H]1NC(=O)CNC(=O)[C@@H](Cc3ccc(-c4ccccc4)cc3)NC(=O)[C@@H]3C[C@@H](O)CN3C(=O)[C@H](C(C)(C)C)n3cc(nn3)COCCNC1=O)c1nnc(C)n1-2 [Compound 200]
< 50 | Cc1sc2c(c1C)C(c1ccc(Cl)cc1)=N[C@@H](CC(=O)NC[C@H]1NC(=O)[C@@H](C)NC(=O)[C@@H](Cc3ccc(-c4ccccc4)cc3)NC(=O)[C@@H]3C[C@@H](O)CN3C(=O)[C@H](C(C)(C)C)n3cc(nn3)COCCNC1=O)c1nnc(C)n1-2 [Compound 201]
< 1000 | Cc1sc2c(c1C)C(c1ccc(Cl)cc1)=N[C@@H](CC(=O)N(C)C[C@H]1NC(=O)CNC(=O)[C@@H](Cc3ccc(-c4ccccc4)cc3)NC(=O)[C@@H]3C[C@@H](O)CN3C(=O)[C@H](C(C)(C)C)n3cc(nn3)COCCNC1=O)c1nnc(C)n1-2 [Compound 203]
> 20000 | Cc1sc2c(c1C)C(c1ccc(Cl)cc1)=N[C@@H](CC(=O)N(C)C[C@H]1NC(=O)CNC(=O)[C@@H](Cc3ccc(-c4ccccc4)cc3)NC(=O)[C@@H]3C[C@@H](O)CN3C(=O)[C@H](C(C)(C)C)n3cc(nn3)COCCN(C)C1=O)c1nnc(C)n1-2 [Compound 204]
< 50 | Cc1sc2c(c1C)C(c1ccc(Cl)cc1)=N[C@@H](CC(=O)NC[C@H]1NC(=O)CNC(=O)[C@@H](Cc3ccc(-c4ccccc4)cc3)NC(=O)[C@@H]3C[C@@H](O)CN3C(=O)[C@H](C(C)(C)C)n3cc(nn3)COCCN(C)C1=O)c1nnc(C)n1-2 [Compound 205]

Further lines, the molecule ahead of its results:

Compound | DC50 [nM]
Cc1ncsc1-c1ccc([C@H]2NC(=O)[C@@H]3C[C@@H](O)CN3C(=O)[C@H](C(C)(C)C)NC(=O)CSC[C@H](C(N)=O)NC(=O)[C@@H](NC(=O)C[C@@H]3N=C(c4ccc(Cl)cc4)c4c(sc(C)c4C)-n4c(C)nnc43)NC(=O)CNC2=O)cc1 [Compound 68] | > 20000
Cc1ncsc1-c1ccc([C@H]2NC(=O)[C@@H]3C[C@@H](O)CN3C(=O)[C@H](C(C)(C)C)NC(=O)CSC[C@H](C(N)=O)NC(=O)[C@H](NC(=O)C[C@@H]3N=C(c4ccc(Cl)cc4)c4c(sc(C)c4C)-n4c(C)nnc43)NC(=O)CNC2=O)cc1 [Compound 69] | > 20000
Cc1ncsc1-c1ccc(C[C@H]2NC(=O)[C@@H]3C[C@@H](O)CN3C(=O)[C@H](C(C)(C)C)NC(=O)COCCNC(=O)[C@@H](CNC(=O)C[C@@H]3N=C(c4ccc(Cl)cc4)c4c(sc(C)c4C)-n4c(C)nnc43)NC(=O)[C@@H](C)NC2=O)cc1 [Compound 70] (cyclo([AEA][Tle][Hyp][X13][dA][dDap](JQ1acid))) | < 50
Cc1sc2c(c1C)C(c1ccc(Cl)cc1)=N[C@@H](CC(=O)NC[C@H]1NC(=O)[C@@H](CCCCN=[N+]=[N-])NC(=O)[C@@H](Cc3ccc(-c4ccccc4)cc3)NC(=O)[C@@H]3C[C@@H](O)CN3C(=O)[C@H](C(C)(C)C)NC(=O)COCCNC1=O)c1nnc(C)n1-2 [Compound 71] (cyclo([AEA][Tle][Hyp][dBip][dLys(N3)][dDap](JQ1acid))) | < 1000
Cc1sc2c(c1C)C(c1ccc(Cl)cc1)=N[C@@H](CC(=O)NC[C@H]1NC(=O)[C@@H](CCCCN)NC(=O)[C@@H](Cc3ccc(-c4ccccc4)cc3)NC(=O)[C@@H]3C[C@@H](O)CN3C(=O)[C@H](C(C)(C)C)NC(=O)COCCNC1=O)c1nnc(C)n1-2 [Compound 72] (cyclo([AEA][Tle][Hyp][dBip][dK][dDap](JQ1acid))) | < 1000
Cc1sc2c(c1C)C(c1ccc(Cl)cc1)=N[C@@H](CC(=O)NC[C@H]1NC(=O)[C@@H](C(C)C)NC(=O)[C@@H](Cc3ccc(-c4ccccc4)cc3)NC(=O)[C@@H]3C[C@@H](O)CN3C(=O)[C@H](C(C)(C)C)n3cc(nn3)COCCNC1=O)c1nnc(C)n1-2 [Compound 202] (cyclo([Hyp][dBip][dV][dDap](JQ1acid)[X1])) | < 50
Cc1sc2c(c1C)C(c1ccc(Cl)cc1)=N[C@@H](CC(=O)NC[C@H]1CCCNC(=O)[C@@H](Cc3ccc(-c4ccccc4)cc3)NC(=O)[C@@H]3C[C@@H](O)CN3C(=O)[C@H](C(C)(C)C)n3cc(nn3)COCCNC1=O)c1nnc(C)n1-2 [Compound 206] | < 50
Cc1sc2c(c1C)C(c1ccc(Cl)cc1)=N[C@@H](CC(=O)NC[C@H]1CCCNC(=O)[C@@H](Cc3ccc(-c4ccccc4)cc3)NC(=O)[C@@H]3C[C@@H](O)CN3C(=O)[C@H](C(C)(C)C)n3cc(nn3)C3(CC3)CNC1=O)c1nnc(C)n1-2 [Compound 207] | < 50
Cc1sc2c(c1C)C(c1ccc(Cl)cc1)=N[C@@H](CC(=O)NC[C@H]1CCCNC(=O)[C@@H](Cc3ccc(-c4ccccc4)cc3)NC(=O)[C@@H]3C[C@@H](O)CN3C(=O)[C@H](C(C)(C)C)n3cc(nn3)C3(CC3)CNC(=O)CNC1=O)c1nnc(C)n1-2 [Compound 208] | < 1000
